Results as given in ChEMBL document CHEMBL1201862, “PubChem BioAssay data set” (2004).
Active and inactive are the calls of the source.

What was measured:
[1] = potency of ADAM10 substrate cleavage blockers – biochemical, QFRET, dose response (AID 743254);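 also: ADAM10 enzyme with the DM2 quenched FRET peptide as substrate; EDANS fluorescence gain as the protease cuts the substrate; inhibitor potency against ADAM10 proteolytic activity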
[2] = biological target: Disintegrin and metalloproteinase domain-containing protein 17 (Homo sapiens, UniProt P78536); assay: inhibition of ADAM17 substrate cleavage – biochemical, quenched FRET substrate, counter-screen for ADAM10 exosite inhibitor project, dose response (AID 743253)
[3] = biological target: Oxysterols receptor LXR-beta (Homo sapiens, UniProt P55055); assay type: functional, cell-based;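 also: agonist activity at LXR measured by a cell-based luminescence readout across a dose range, run as a counterscreen for daf-12 agonists; HEK293 cells with Gal4-LXR fusion and GAL4-driven luciferase reporter; potency for activation of Gal4-LXR reporter so compounds are agonists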
Beta-lactamase [4] = biological target: T1, Beta-lactamase (Pseudomonas aeruginosa, UniProt Q79MP6); assay: […] counterscreen for selective VIM-2 inhibitors: dose response biochemical high throughput screening assay to identify inhibitors of IMP-1 metallo-beta-lactamase.
Beta-lactamase [5] = biological target: Beta-lactamase (Salmonella choleraesuis (strain SC-B67), UniProt Q5J463); assay: Epi-absorbance-based counterscreen for selective VIM-2 inhibitors: dose response biochemical high throughput screening assay to identify inhibitors of TEM-1 serine-beta-lactamase.
Beta-lactamase [6] = biological target: T1, Beta-lactamase; assay: inhibition of IMP-1 beta-lactamase activity – biochemical, epi-absorbance, selectivity assay for VIM-2 inhibitor project, dose response (AID 1920)
[7] = biological target: T2, Sentrin-specific protease 1 (Homo sapiens, UniProt Q9P0U3); assay: Dose response confirmation of small molecule inhibitors of the catalytic domain of the SUMO protease, SENP1 in a FRET assay.; assay type: functional; conditions: read-out: IC50_Mean
[8] = biological target: T2, Sentrin-specific protease 1; assay: SENP1 catalytic domain blockers, concentration series – biochemical, kinetic FRET, dose response (AID 651697); assay type: functional; conditions: read-out: IC50_Mean
Large T antigen = Large T antigen (Simian virus 40, UniProt P03070); assay type: functional, Betapolyomavirus macacae;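 also: Confirmatory-stage PubChem screen for compounds that inhibit SV40 T antigen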
Beta-galactosidase = Beta-galactosidase (Escherichia coli, UniProt Q8VNN2); assay: Dose response counterscreen for EBI2 assay utilizing the enzyme, b-galactosidase.; assay type: functional
[9] = viability loss in HepG2 hepatoma cells – cell-based, ATP luminescence, cherry-pick, activator set 2, cytotoxicity control, dose response (AID 1053143); assay type: functional
[10] = ATP-based viability loss in HEK293T cells – cell-based, CellTiter-Glo luminescence, cherry-picked samples, set 4, cytotoxicity control, dose response (AID 743441); assay type: functional; conditions: HEK293
[11] = MIN6 cell viability loss – mouse insulinoma, cytotoxicity control, dose response (AID 2122); assay type: functional;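 also: confirmatory high-throughput counterscreen run to flag cytotoxic compounds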
Protein Wnt-3a = Protein Wnt-3a (Mus musculus, UniProt P27467); assay: antagonism of Wnt3a pathway luciferase reporter – Wnt-LIGHT cells, luminescence, selectivity assay for Gli-SUFU antagonist project, dose response (AID 651570); assay type: functional; conditions: read-out: IC50_Mean;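 also: Wnt-LIGHT reporter cells stimulated with conditioned medium from Wnt3a-producing cells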
[12] = Luminescence Cell-Based Dose Response HTS to Identify Activators of Luciferase Translation or Activity in H4 […] Cells. [Related pubchem assays: 1829 (Project Summary), 1814 (Primary HTS)]; assay type: functional
[13] = decrease of insulin promoter-GFP reporter – imaging, high-content screening, mouse beta cells (AID 1628); assay type: functional; conditions: MIN6
H4 = assay: Luminescence Cell-Based Dose Response HTS to Identify Activators of 5'UTR Stem-Loop Driven Prion Protein mRNA Translation in H4 Neuroglioblastoma Cells. [Related pubchem assays: 1829 (Project Summary), 1814 (Primary HTS)]; assay type: functional; conditions: Homo sapiens
[14] = biological target: T3, Small ubiquitin-related modifier 2 (Homo sapiens, UniProt P61956); assay: SUMO2 binding disruption by SUMO1 hits – biochemical, FRET, human SUMO2, uHTS hits, selectivity assay for SUMO1 interaction inhibitor project, dose response (AID 624384); assay type: functional; conditions: read-out: IC50_Mean
[15] = biological target: T4, Small ubiquitin-related modifier 1 (Homo sapiens, UniProt P63165); assay: SUMO1 protein interaction blockers, potency – biochemical, fluorescence polarization, uHTS hits, dose response (AID 624382); assay type: functional; conditions: read-out: IC50_Mean
[16] = biological target: T4, Small ubiquitin-related modifier 1; assay: SUMO1 protein-protein binding blockers, potency – biochemical, FRET, dose response (AID 624383); assay type: functional; conditions: read-out: IC50_Mean
[17] = biological target: T3, Small ubiquitin-related modifier 2; assay: disruption of SUMO2 interaction with SIM peptide – biochemical, fluorescence polarization, uHTS hits, selectivity assay for SUMO1 interaction inhibitor project, dose response (AID 624385); assay type: functional; conditions: read-out: IC50_Mean
Aminopeptidase N = biological target: T5, Aminopeptidase N (Plasmodium falciparum FcB1/Columbia, UniProt O96935); assay: malaria alanyl aminopeptidase activity blockers – biochemical, fluorogenic H-Leu-NHMec substrate, 1536-well (AID 1445); set-up: species or system Plasmodium falciparum 3D7, 3D7
T5 sequence (O96935 whole entry): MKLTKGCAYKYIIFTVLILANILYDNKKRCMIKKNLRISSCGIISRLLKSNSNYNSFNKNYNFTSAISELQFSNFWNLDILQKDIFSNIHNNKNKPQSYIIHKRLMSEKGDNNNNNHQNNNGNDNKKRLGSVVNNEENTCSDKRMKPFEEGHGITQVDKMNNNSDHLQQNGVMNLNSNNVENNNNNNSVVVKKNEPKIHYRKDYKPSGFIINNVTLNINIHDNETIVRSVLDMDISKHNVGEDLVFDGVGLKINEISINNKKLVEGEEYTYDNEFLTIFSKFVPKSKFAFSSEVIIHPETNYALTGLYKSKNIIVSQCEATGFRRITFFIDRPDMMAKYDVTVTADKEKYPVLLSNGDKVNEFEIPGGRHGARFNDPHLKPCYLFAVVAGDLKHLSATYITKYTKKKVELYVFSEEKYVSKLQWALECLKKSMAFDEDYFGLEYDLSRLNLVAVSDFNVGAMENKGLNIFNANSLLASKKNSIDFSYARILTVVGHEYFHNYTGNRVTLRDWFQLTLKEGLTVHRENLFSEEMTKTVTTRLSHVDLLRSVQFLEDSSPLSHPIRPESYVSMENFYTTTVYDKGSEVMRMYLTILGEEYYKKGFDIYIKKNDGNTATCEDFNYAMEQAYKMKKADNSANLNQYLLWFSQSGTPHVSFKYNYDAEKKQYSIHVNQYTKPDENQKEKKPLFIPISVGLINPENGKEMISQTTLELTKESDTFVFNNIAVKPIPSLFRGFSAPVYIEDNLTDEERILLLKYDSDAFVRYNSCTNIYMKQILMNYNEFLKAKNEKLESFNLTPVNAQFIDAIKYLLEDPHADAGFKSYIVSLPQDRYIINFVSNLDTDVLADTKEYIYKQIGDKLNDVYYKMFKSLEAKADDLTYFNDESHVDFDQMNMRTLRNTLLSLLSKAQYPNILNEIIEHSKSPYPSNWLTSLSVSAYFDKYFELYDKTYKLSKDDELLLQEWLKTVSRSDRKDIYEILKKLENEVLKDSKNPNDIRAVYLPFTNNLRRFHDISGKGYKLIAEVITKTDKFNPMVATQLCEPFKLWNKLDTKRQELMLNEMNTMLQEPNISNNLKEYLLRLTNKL

T1 sequence (Q79MP6 whole entry): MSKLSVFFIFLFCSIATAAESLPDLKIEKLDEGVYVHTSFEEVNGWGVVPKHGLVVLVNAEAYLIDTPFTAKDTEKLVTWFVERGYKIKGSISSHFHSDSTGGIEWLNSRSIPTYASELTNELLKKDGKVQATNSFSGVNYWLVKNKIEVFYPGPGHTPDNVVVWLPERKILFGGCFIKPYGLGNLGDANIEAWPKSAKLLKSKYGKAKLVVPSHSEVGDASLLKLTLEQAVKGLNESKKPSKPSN
T3 sequence (P61956 whole entry): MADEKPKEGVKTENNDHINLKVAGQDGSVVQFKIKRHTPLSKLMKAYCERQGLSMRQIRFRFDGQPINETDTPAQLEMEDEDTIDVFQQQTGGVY
T2 sequence (Q9P0U3 whole entry, the tested form may be a part): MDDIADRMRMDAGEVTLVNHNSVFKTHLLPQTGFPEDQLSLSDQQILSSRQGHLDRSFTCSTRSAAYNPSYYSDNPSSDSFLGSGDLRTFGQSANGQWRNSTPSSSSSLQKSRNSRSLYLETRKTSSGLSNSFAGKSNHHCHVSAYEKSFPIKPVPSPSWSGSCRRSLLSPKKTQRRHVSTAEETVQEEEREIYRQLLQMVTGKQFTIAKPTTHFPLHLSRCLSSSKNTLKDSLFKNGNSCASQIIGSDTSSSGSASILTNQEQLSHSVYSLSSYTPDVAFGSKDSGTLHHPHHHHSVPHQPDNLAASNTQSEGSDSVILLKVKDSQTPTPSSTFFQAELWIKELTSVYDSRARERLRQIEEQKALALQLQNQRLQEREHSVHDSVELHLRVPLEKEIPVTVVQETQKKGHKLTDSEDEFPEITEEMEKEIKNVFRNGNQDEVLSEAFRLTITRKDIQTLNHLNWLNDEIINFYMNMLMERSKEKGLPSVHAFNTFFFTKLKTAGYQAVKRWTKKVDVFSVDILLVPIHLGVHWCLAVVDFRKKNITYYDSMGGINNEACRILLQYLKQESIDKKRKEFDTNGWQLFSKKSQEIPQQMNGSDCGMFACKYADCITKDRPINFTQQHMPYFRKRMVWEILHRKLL
T4 sequence (P63165 whole entry): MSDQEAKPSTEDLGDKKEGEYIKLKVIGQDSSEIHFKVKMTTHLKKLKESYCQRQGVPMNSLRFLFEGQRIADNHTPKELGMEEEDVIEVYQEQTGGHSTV
Sequence of Large T antigen (P03070 whole entry): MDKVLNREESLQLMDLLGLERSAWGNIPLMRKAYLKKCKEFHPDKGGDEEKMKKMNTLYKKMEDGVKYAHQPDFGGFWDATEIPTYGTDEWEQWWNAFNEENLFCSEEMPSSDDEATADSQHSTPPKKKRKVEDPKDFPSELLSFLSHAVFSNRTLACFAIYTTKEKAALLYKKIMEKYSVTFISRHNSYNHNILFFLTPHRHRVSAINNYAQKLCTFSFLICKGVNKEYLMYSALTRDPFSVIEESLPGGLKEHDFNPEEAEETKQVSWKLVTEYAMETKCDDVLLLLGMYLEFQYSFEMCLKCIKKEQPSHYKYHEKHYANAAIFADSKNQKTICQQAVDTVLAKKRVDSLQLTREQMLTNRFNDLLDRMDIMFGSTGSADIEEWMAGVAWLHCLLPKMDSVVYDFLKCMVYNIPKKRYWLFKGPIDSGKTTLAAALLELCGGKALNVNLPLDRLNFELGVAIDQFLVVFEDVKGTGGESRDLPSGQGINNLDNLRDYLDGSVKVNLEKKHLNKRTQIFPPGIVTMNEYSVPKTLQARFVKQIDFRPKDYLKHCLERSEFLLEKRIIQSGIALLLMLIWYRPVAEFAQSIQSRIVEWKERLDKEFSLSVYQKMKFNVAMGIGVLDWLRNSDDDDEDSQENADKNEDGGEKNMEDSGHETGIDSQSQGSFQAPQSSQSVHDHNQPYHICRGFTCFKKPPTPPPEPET
Sequence of Beta-galactosidase (Q8VNN2 whole entry): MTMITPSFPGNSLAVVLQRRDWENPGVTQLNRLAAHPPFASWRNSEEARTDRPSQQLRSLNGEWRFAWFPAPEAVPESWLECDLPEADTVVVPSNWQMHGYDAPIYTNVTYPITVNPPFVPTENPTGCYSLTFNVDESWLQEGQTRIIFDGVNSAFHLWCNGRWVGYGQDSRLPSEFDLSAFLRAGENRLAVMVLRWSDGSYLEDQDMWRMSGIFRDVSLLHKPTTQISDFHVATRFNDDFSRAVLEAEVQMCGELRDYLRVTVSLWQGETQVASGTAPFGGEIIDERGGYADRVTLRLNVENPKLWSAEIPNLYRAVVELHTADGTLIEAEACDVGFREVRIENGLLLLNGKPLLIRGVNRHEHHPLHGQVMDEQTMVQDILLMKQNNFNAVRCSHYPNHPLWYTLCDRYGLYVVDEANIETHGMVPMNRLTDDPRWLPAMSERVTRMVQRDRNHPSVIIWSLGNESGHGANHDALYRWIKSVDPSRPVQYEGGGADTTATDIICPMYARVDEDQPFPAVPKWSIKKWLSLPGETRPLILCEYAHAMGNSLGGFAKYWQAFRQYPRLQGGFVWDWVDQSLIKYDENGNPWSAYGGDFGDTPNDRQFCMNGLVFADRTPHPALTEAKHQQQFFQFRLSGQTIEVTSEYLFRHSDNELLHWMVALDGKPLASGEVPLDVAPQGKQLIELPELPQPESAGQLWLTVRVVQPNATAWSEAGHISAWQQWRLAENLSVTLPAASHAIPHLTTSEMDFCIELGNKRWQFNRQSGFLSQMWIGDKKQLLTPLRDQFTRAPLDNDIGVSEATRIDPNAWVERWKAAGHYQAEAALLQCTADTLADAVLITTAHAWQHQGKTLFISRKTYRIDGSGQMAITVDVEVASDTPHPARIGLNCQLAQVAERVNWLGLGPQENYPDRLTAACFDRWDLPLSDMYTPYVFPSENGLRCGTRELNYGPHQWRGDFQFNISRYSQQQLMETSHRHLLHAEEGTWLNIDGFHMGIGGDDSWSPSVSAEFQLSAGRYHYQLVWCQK
Sequence of Oxysterols receptor LXR-beta (P55055 whole entry, the tested form may be a part): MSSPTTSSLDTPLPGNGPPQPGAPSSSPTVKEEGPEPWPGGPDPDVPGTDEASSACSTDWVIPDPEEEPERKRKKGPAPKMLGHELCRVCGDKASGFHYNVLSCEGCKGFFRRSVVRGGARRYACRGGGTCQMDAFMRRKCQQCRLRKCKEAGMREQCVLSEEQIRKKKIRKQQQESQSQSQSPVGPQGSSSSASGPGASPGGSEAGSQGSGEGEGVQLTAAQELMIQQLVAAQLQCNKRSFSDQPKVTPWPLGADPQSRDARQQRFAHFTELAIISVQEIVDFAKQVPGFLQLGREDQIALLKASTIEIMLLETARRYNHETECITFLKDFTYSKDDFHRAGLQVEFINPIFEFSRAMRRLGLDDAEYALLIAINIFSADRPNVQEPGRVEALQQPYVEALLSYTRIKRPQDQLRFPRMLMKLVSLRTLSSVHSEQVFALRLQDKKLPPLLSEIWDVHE
Sequence of Protein Wnt-3a (P27467 whole entry): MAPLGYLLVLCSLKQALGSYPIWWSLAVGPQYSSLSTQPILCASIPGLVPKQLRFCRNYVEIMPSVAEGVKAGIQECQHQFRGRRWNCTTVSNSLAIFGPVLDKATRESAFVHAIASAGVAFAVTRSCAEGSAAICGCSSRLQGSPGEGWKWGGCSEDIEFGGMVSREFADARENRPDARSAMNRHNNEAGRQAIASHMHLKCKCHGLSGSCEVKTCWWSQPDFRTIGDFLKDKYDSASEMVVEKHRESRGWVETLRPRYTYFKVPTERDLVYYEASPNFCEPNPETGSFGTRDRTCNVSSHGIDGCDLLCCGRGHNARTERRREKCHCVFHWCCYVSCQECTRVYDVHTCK
Sequence of Beta-lactamase (Salmonella choleraesuis (strain SC-B67), UniProt Q5J463) (Q5J463 whole entry): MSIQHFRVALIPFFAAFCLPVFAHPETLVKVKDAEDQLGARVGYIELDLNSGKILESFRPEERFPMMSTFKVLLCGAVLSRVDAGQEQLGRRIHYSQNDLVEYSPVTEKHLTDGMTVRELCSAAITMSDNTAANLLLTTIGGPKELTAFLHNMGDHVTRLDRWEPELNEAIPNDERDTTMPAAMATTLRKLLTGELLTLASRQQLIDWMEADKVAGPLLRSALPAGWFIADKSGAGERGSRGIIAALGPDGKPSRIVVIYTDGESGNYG
Sequence of Disintegrin and metalloproteinase domain-containing protein 17 (P78536 whole entry, the tested form may be a part): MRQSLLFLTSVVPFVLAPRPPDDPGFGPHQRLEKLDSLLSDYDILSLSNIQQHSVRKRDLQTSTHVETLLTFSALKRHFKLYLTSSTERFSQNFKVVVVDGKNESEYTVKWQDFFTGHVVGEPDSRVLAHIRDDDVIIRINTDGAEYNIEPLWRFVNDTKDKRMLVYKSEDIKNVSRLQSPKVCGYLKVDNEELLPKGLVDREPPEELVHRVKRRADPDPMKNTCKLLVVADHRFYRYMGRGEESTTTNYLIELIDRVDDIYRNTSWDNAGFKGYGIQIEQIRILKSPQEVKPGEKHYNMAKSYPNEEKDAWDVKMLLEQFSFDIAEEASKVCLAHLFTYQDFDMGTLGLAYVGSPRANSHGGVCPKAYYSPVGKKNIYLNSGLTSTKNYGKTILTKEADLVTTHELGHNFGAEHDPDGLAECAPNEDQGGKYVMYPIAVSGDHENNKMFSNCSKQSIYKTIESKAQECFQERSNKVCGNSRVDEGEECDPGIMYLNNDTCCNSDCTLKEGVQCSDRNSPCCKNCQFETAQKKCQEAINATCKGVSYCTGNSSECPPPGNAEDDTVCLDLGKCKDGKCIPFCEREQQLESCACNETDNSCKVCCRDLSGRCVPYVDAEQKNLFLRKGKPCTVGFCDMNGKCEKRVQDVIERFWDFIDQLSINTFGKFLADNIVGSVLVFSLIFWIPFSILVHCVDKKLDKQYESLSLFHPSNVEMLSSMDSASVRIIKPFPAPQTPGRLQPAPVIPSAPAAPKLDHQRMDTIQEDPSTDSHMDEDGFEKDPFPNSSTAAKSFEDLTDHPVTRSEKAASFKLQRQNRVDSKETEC

O=S(=O)(NCC(Nc1ccc(Cl)cc1)c1ccccc1)c1ccccc1 (stereo not drawn)
IC50 [1]: 11.4 µM (inactive) | IC50 [2]: > 69.5 µM (inactive)

Cc1ccc(SCCN2CCC(C)CCC2=O)cc1 (stereo not drawn)
EC50 [3]: > 67.5 µM (inactive)

Cc1ccc(-c2nnc(S)n2-c2ccccc2)cc1
IC50 (Beta-lactamase [4]): > 59.6 µM (inactive) | IC50 (Beta-lactamase [5]): > 59.6 µM (inactive) | IC50 (Beta-lactamase [6]): > 59.6 µM (inactive)

Cc1cccn2c(=O)c(/C=C(\C#N)C(N)=O)c(Oc3ccccc3)nc12
AC50 (cells): 8.22 µM (active)

Cc1ccc(-c2nc3ncccn3c2NC2CCCCC2)o1
IC50 [7]: 8.98 µM (active) | IC50 [8]: 19.7 µM (active) | IC50 (Large T antigen): 25.9 µM (active)

Cc1ccc(CNC(=O)C2CCN(S(=O)(=O)c3ccc(Br)s3)CC2)cc1
IC50 (Beta-galactosidase): > 80 µM (inactive)

CC(=O)Nc1cc2nn(-c3ccccc3)nc2cc1Cl
AC50 [9]: 4.99 µM (active)

COc1ccc(Cn2c(-c3ccc(Cl)cc3)c[n+]3ccccc23)cc1
AC50 [10]: 39.3 µM (active) | IC50 [11]: 1.02 µM (active) | IC50 (Protein Wnt-3a): 36.9 µM (inactive) | EC50 [12]: > 120 µM (not active) | IC50 [13]: 1.35 µM (active) | EC50 (H4): > 120 µM (not active)

Nc1cccc2[nH]c(C(F)(F)F)nc12
IC50 [14]: 10.4 µM (active) | IC50 [15]: 26.8 µM (inactive) | IC50 [16]: 37 µM (inactive) | IC50 [17]: 29.8 µM (inactive) | IC50 (Aminopeptidase N): 80.8 µM (active)
